According to patent US8530454B2, “Use of 2,5-dihydroxybenzene compounds and derivatives for the treatment of psoriasis” (Amderma Pharmaceuticals, LLC, priority 2006, dated 2013):

Key:
[1] = system: bFGF-induced fibrosis in rat adipose tissue; test: bFGF-induced fibrosis around subcutaneously implanted gelatin sponges; assay type: in vivo, Sprague-Dawley rats; conditions: 100 μM in sponge with bFGF and heparin, 7 days, vs bFGF alone
Method: Sterile gelatin sponges (1 mm^3; Curaspon Dental, Clinimed Holding, Zwanenburg, The Netherlands) were subcutaneously implanted in the dorsal region of the neck in Sprague-Dawley rats after the induction of intraperitoneal anesthesia. The animals were split into two groups: group A, the sponges were moistened with 200 μl of saline solution which contained 25 μg/ml of heparin and 10 μg/ml of basic FGF (bFGF); group B, the sponges were moistened in the same solution as in group A, but which solution farther contained 2,5-dihydroxybenzoate (100 μM). After 7 days, the sponges and the surrounding subcutaneous fat were removed and histologically analyzed.

[2] = system: rat glioma C6 cells; test: Rat glioma C6 cell proliferation, crystal violet staining; assay type: cell-based; conditions: 48 h; for C6 cell proliferation (percentage of control absorbance at 595 nm): 500 μM, p<0.001 vs control (FIG. 12)
Method: The cell line used was rat glioma C6 cells. The cells were cultured as previously described (Cuevas P et al. Neurol Res, 2005). The cells were cultured as adherent cells in Dulbecco's modified Eagle's medium, supplemented with 7.5% (v/v) of fetal bovine serum, 10 μg/ml of streptomycin and 10 units/ml of penicillin. The tumor cells were seeded in 24-well plates at a density of 10,000 cells/well, and were incubated at 37° C. in a humidified chamber with 5% CO2. Once adhered, the cells were treated or not (controls) with 2,5-dihydroxybenzoate at 100, 200, 500 or 1000 μM and they were allowed to proliferate for 48 h. After this time the glioma cell proliferation was evaluated by means of staining the fixed cells with crystal violet. The number of cells is proportional to the amount of retained dye, which was spectrophotometrically determined by measuring the absorbance at 595 nm once the dye was extracted from the cells.
(§1) The cell line used was the C6 cell line and the experiment was carried out as described in Example 2. Once adhered, the cells were treated or not (controls) with increasing concentrations of 2,5-DHC (10, 25, 50 and 100 μM) and they were allowed to proliferate for 48 h. After this time the glioma cell proliferation was evaluated by means of staining the fixed cells with crystal violet. The number of cells is proportional to the amount of retained dye, which was determined spectrophotometrically by measuring absorbance at 595 nm once the dye was extracted from the cells.
as §1, with “examples 2 and 3.” for “Example 2.”, “(5A-2HBS) (500 μM) or (2A-5HBS) (500” for “increasing concentrations of 2,5-DHC (10, 25, 50 and 100”, “measuring the” for “measuring”

[3] = molecular target: fibroblast growth factor-1 (FGF-1) (Homo sapiens, UniProt P05230); test: Crystal diffraction of co-crystal complexes with FGF-1; assay type: binding; conditions: electron density contoured at 1σ; for acetoxyl groups retained when bound to FGF-1: co-crystal; for binding site on FGF-1 in the co-crystal: reference lysine 132
Sequence of fibroblast growth factor-1 (FGF-1) (P05230 whole entry, species assumed): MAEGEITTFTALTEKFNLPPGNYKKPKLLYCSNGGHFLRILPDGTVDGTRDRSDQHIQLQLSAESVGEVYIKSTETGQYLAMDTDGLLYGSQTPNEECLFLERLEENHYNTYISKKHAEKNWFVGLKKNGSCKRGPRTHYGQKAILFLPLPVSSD
Method: Based on the crystal diffraction of the FGF-1:2-acetoxy-5-hydroxybenzene sulfonic acid, FGF-1:5-acetoxy-2-hydroxybenzene sulfonic acid and FGF-1:2,5-diacetoxybenzene sulfonic acid complexes, the structures of the complexes were calculated and represented. FIGS. 13, 14 and 15, which show the surface of the dyed protein according to its electrostatic potential (light grey, negative charge; dark grey, positive charge; white, regions with no charge), show the manner in which 2-acetoxy-5-hydroxybenzene sulfonic acid, 5-acetoxy-2-hydroxybenzene sulfonic acid and 2,5-diacetoxybenzene sulfonic acid interact, respectively, with FGF-1.

[4] = system: mitogenesis induced by fibroblast growth factor-1 (FGF-1) in Balb/c 3T3 fibroblasts; test: Inhibition of FGF-1-induced mitogenesis in quiescent Balb/c 3T3 fibroblasts; assay type: cell-based; conditions: quiescent Balb/c 3T3 cultures; potassium salts, calcium salt for 2-acetoxy-5-hydroxybenzene sulfonate
Method: The evaluated compounds were used in the form of potassium salt, except in the first case which used calcium salt. The experiments were carried out as described in Fernández-Tornero C et al. J Biol Chem, 2003.

[5] = system: human lung cancer A549 cells; test: Human tumor cell proliferation (XTT), A549; assay type: cell-based; conditions: 1-200 μM, 96 h
Method: (§2) The cell lines used were the human prostate cancer PC-3 cells and human lung cancer A549 cells. 2000 cells were seeded per well in 96-well plates and they were allowed to adhere overnight. Then the cells were treated or not (controls) with potassium 2,5-diacetoxybenzene sulfonate (DABS) (1-200 μM) and they were allowed to proliferate for 96 h. After this time, the PC-3 and A549 cell proliferation was evaluated by determining the final number of cells by means of the viability method of yellow tetrazolium salt (XTT). The data were expressed as a percentage of the control (without treatment).

[6] = system: subcutaneous gliomas from implanted rat glioma C6 cells; test: Progression of established subcutaneous C6 gliomas in rats; assay type: in vivo; conditions: 100 mg/kg/day i.p. for 10 days
Method: Rat C6 glioma cells were cultured as previously described (Cuevas P et al. Neurol Res, 2005). The C6 cells cultured to confluence in 75 cm^2 flasks were removed and implanted under the abdominal skin in anesthetized rats. The existence of a tumor in the implantation area was observed five days after the implantation of the tumor cells. Only the rats in which the existence of a tumor was observed were randomly assigned to be treated with daily intraperitoneal injections of 2,5-dihydroxybenzene sulfonate (DHBS; 100 mg/kg/day), 2,5-diacetoxybenzene sulfonate (DABS; 100 mg/kg/day) or the carrier (0.9% NaCl). After 10 days of treatment, the subcutaneous gliomas were removed and their volume was calculated according to the formula V=4/3π·(L/2)·(A/2)^2 (in mm^3) where L is the larger diameter and A is the smaller diameter, both expressed in mm.

[7] = system: subcutaneous tumors from human prostate cancer PC-3 cells; test: Subcutaneous PC-3 prostate cancer cell implantation model in athymic mice; assay type: in vivo, athymic mice (Nu/Nu); conditions: 100 mg/kg daily i.p. for 15 days, vs carrier
Method: 5×10^6 human prostate cancer PC-3 cells were subcutaneously injected in male athymic mice (Nu/Nu) of 6-8 weeks of age and weighing 20-26 g. Ten days after the implantation of the tumor cells, the mice were randomly split into two groups: one of them received a daily injection of potassium 2,5-diacetoxybenzene sulfonate (DABS) by intraperitoneal route at a dose of 100 mg/kg dissolved in saline (0.9% NaCl) whereas the other group received a daily injection of carrier (saline). The treatments were administered for 15 days. The volumes of the tumors induced by the implantation of PC-3 cells were measured through the skin on alternating days using a Vernier caliper. The volume was calculated using the formula V=(D×2d)/2, where D is the larger diameter in mm, d is the smaller diameter in mm and V is the volume in mm3. At the end of treatment, the mice were sacrificed and the tumors were weighed.

[8] = system: human prostate cancer PC-3 cells; test: Human tumor cell proliferation (XTT), PC-3; assay type: cell-based; conditions: 1-200 μM, 96 h
Method: as §2

[9] = system: tumor cells of subcutaneous gliomas; test: Apoptosis in sections of established subcutaneous gliomas (hematoxylin and eosin); assay type: in vivo, rat; conditions: 100 mg/kg/day i.p. for 10 days, vs carrier (very scarce)
Excerpt: Tumor cells elude the programmed cell death process or apoptosis that normal cells experience. Apoptosis induction in tumor cells is one way to confront the development of a tumor. To evaluate the effect of potassium 2,5-dihydroxybenzene sulfonate […] on tumor cell apoptosis, 6 μm thick sections of the subcutaneous gliomas described in example 4 were made. The sections were stained with hematoxylin and eosin and observed at a magnification of 313 times using immersion oil. In these conditions, cell apoptosis is shown by the existence of apoptotic bodies appearing as strongly chromogenic granules in the cell nucleus which is frequently fragmented.

## O=C([O-])c1cc(O)ccc1O.[K+] [2,5-dihydroxybenzoate, potassium 2,5-dihydroxybenzoate]
[1]
  bFGF-induced fibrosis (fibroblasts in septa of connective tissue of adipose tissue): reduces bFGF-induced fibrosis
[2]; 100, 200, 500 and 1000 μM
  C6 cell proliferation (absorbance at 595 nm): inhibited rat glioma C6 cell proliferation in a concentration-dependent manner
[2]; 500 and 1000 μM, p<0.001 (FIG. 2)
  statistical significance of inhibition of C6 cell proliferation vs control: statistically significant

## CC(=O)Oc1ccc(O)c(S(=O)(=O)[O-])c1.[K+] [5A-2HBS, potassium 5-acetoxy-2-hydroxybenzene sulfonate]
[3]
  acetoxyl groups retained when bound to FGF-1: conserve the acetoxyl groups
  binding site on FGF-1 in the co-crystal: occupy a site that is very close to the one that has been described occupied by 2,5-dihydroxybenzene sulfonic acid
[2]
  C6 cell proliferation (percentage of control absorbance at 595 nm): caused the inhibition of rat glioma cell proliferation
[4]
  inhibition of mitogenesis induced by FGF-1: inhibition of mitogenesis induced by FGF-1

## CC(=O)Oc1ccc(OC(C)=O)c(S(=O)(=O)[O-])c1.[K+] [DABS, potassium 2,5-diacetoxybenzene sulfonate]
[5]
  A549 cell proliferation (percentage of control): significant inhibition
[6]; all rats had established tumors before treatment
  rats tumor-free when treatment ended: 4 rats
[6]; p<0.05
  probability of being tumor-free (χ2 test), DABS group vs DHBS group: greater probability of being tumor-free
[7]; start 10 days after implantation
  tumor growth (tumor volume through the skin): significantly reduced
[7]; p<0.05
  weight of the extracted tumor when treatment ended: significant reduction of the weight
[3]
  acetoxyl groups retained when bound to FGF-1: conserve the acetoxyl groups
  binding site on FGF-1 in the co-crystal: occupy a site that is very close to the one that has been described occupied by 2,5-dihydroxybenzene sulfonic acid
[8]
  PC-3 cell proliferation (percentage of control): significant inhibition
[9]
  tumor cells in apoptosis in glioma sections: a large number of tumor cells in apoptosis
[4]
  inhibition of mitogenesis induced by FGF-1: inhibition of mitogenesis induced by FGF-1

## CC(=O)Oc1ccc(O)cc1S(=O)(=O)[O-].[K+] [2A-5HBS, potassium 2-acetoxy-5-hydroxybenzene sulfonate]
[3]
  acetoxyl groups retained when bound to FGF-1: conserve the acetoxyl groups
  binding site on FGF-1 in the co-crystal: occupy a site that is very close to the one that has been described occupied by 2,5-dihydroxybenzene sulfonic acid
[2]
  C6 cell proliferation (percentage of control absorbance at 595 nm): caused the inhibition of rat glioma cell proliferation
[4]
  inhibition of mitogenesis induced by FGF-1: inhibition of mitogenesis induced by FGF-1

## O=C(O)C=Cc1cc(O)ccc1O [2,5-DHC, 3-(2,5-dihydroxyphenyl)-2-propenoic acid]
[2]; 50 μM
  C6 cell proliferation relative to control: less than half
[2]; 100 μM
  C6 cell proliferation relative to control: one tenth

## O=S(=O)([O-])c1cc(O)ccc1O.[K+] [DHBS, potassium 2,5-dihydroxybenzene sulfonate, reference compound]
[6]; treatment from day 5 after implantation, vs carrier
  average size (volume) of subcutaneous gliomas: less than that of the rats treated with carrier
[4]
  inhibition of mitogenesis induced by FGF-1: inhibition of the mitogenesis
